{
  "source": "patent US20240415878A1",
  "about": "“Compositions and Methods for Modulating Mitochondrial Function” (Board of Regents, The University of Texas System, priority 2021, published 2024)",
  "key": {"[1]": {"assay": "HFD-fed WT mice treated with CPACC i.p.", "format": "in vivo", "description": "CPACC treatment enhances adipose browning and lowers whole body weight. Given the potent mMg^2+ uptake inhibiting properties and low toxicity of CPACC, we hypothesized that CPACC could mimic Mrs2^−/− cellular phenotype. WT hepatocytes isolated from over 12 months old mice were treated with 50 μM CPACC for 48 hours. Control and CPACC treated hepatocytes were stained with BODIPY and TMRE for intracellular tracing using confocal imaging. […] Next it was determined if CPACC treatment affects the mitochondrial oxygen consumption rate. Freshly isolated WT hepatocytes were treated with 5-25 μM concentrations of CPACC for 16 hours before measurement of oxygen consumption rate. […] Since it was observed an enhancement of basal OCR in CPACC treated hepatocytes, the extracellular acidification rate was measured in control and CPACC treated hepatocytes and found it to be higher in the CPACC condition indicating higher glycolytic activity (FIG. 11G). Having observed that pharmacologic blockade of Mrs2 by CPACC reduced lipid droplet size and enhanced mitochondrial function, it was asked whether in vivo administration of CPACC lowers body weight gain. 12 weeks HFD-fed WT mice were treated with CPACC (20 mg/kg) via intraperitoneal injection every three days over 6 weeks. […] Because it was observed browning/beiging in Mrs2^−/− iWAT, UCP1 expression by RT-qPCR was tested, confirming induction in the iWAT of CPACC treated mice.\nAnimal models. Wild-type (WT) and Mrs2^−/− (KO) C57BL/6J mice were housed and maintained in our animal breeding facility with prior approval and accordance with the Institutional Animal Care and Use Committee (IACUC). Mice were fed a Western Diet (WD; Research Diets D09100310), a standard Chow Diet (CD; Envigo 7012), or a High Fat Diet (HFD; Research Diets D12492). For most experiments, WT and KO mice were maintained on the WD or the CD starting at 12 weeks of age. With termination at 12 months. WT mice maintained on a HFD starting at 6 weeks were administered control (saline) or CPACC (20 mg/kg BW in saline) I.P. every 3 days starting after 6 weeks of maintained diet. Body weight, health, and food were measured regularly for all groups. […]\nPlasma alanine transaminase activity and citrate measurements. Liver function and damage was determined by measuring alanine transaminase (ALT). The ALT activity in the plasma was determined using the Alanine Transaminase Activity Assay Kit (Abcam ab105134) following manufacturer's protocol. The plasma ALT levels over two different time points were obtained and corresponding ALT activity was determined by reading in a plate reader at 570 nm. […] Citrate levels were determined using the Citrate Assay Kit (Abcam ab83396) by reading in a plate reader at 570 nm following the manufacturer's protocol. […]"}, "Bacterial CorA": {"biological_target": "Bacterial CorA (Salmonella typhimurium, UniProt P0A2R8)", "sequence (P0A2R8 whole entry)": "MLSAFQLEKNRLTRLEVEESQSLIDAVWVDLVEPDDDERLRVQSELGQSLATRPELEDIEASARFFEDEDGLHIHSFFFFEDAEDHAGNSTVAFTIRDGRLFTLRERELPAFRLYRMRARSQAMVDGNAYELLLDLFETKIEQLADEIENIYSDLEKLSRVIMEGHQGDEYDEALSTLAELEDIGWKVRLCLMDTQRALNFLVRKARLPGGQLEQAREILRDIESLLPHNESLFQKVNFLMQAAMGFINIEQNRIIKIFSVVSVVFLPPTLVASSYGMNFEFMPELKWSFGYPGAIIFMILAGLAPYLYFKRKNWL", "settings": "Kucharski et al., 2000, read-out: IC50 for CorA inhibition; cited from earlier work"}, "hepatocytes": {"system": "hepatocytes", "assay": "Cellular uptake assay (GFAAS, Co normalised to protein)", "format": "in vitro ADME, murine", "settings": "intact hepatocytes", "description": "Cellular uptake assay. Hepatocytes were treated with varying doses of CPACC for 30 minutes, cells were washed in Ca^2+ and Mg^2+ free DPBS, and cell pellets flash-frozen. Pellets were suspended in ice cold lysis buffer (0.1% Triton X-100 and 0.2% HNO3 in ultrapure water). The suspension was vortexed for 30 s and incubated on ice for 45 min. The cell lysate was centrifuged, and the supernatant was transferred to a clean tube prior to analysis. The Co^3+ content of the lysate was determined using graphite furnace atomic absorption spectroscopy (GFAAS) and was normalized to the protein content of the sample, which was determined using the bicinchoninic acid (BCA) assay kit following manufacturer instructions (ThermoFisher). Results are reported as the average mass ratio of Co to protein (pg/μg) in each sample±SEM."}},
  "data": [
    {"smiles": "[NH2][Co]([NH2])([NH2])([NH2])([NH2])[Cl]", "note": "[CPACC, chloropentaammine cobalt (III) chloride]", "values": [
      {"measurement": "RT-qPCR analysis of WAT tissue (HIF-1α pathway)", "setting": "[1]; HFD mice, 20 mg/kg i.p.", "value": "transcriptional signature of HIF-1α activation"},
      {"measurement": "UCP1 expression in iWAT by RT-qPCR", "setting": "[1]; HFD-fed WT mice, 20 mg/kg i.p.", "value": "induction"},
      {"measurement": "body weight gain", "setting": "[1]; HFD-fed WT mice, 20 mg/kg i.p. every three days over 6 weeks", "value": "restricted body weight gain"},
      {"measurement": "Plasma ALT levels", "setting": "[1]; HFD-fed WT mice, 20 mg/kg i.p., versus control group", "value": "lower"},
      {"measurement": "IC50", "setting": "Bacterial CorA", "value": "~100", "unit": "µM"},
      {"measurement": "cellular accumulation of the compound (intracellular Co)", "setting": "hepatocytes", "value": "accumulates in the cell in a dose-dependent manner"}
    ]}
  ]
}
